From patent publication US11414436B2, “Non-coordinating anion type activators containing cation having large alkyl groups” (ExxonMobil Chemical Patents Inc., priority 2018, dated 2022)
Several values for one entry are separate records, joined by “and”; a condition that tells them apart may be missing. Equal entries are not always repeated.

Tests used:
[1] = Propylene homopolymerization in parallel pressure reactor, MCN-1 with ammonium borate activators; conditions: for activity: isohexane; for average catalyst activity, comparison of the four activators (FIG. 6): MCN-1, polypropylene at 100° C., Table 7 runs
[2] = Ethylene-octene copolymerization in parallel pressure reactor, non-metallocene catalyst CAT-1; conditions: catalyst CAT-1 20 nmol; activator 1.1 equiv; 100° C.; 135 psi; 1-octene 100 uL; TNOAL 0.5 umol
Description: (§1) Solutions of the metal complexes and activators were prepared in a drybox using toluene or methylcyclohexane. Concentrations were typically 0.2 mmol/L. Tri-n-octylaluminum (TNOAL, neat, AkzoNobel) was typically used as a scavenger. Concentration of the TNOAL solution in toluene ranged from 0.5 to 2.0 mmol/L.
(§2) Polymerizations were carried out in a parallel pressure reactor, as generally described in U.S. Pat. Nos. 6,306,658; 6,455,316; 6,489,168; WO 00/09255; and Murphy, V. et al. (2003) “A Fully Integrated High-Throughput Screening Methodology for the Discovery of New Polyolefin Catalysts: Discovery of a New Class of High Temperature Single-Site Group (IV) Copolymerization Catalysts,” J. Am. Chem. Soc., v. 125, pp. 4306-4317, each of which is fully incorporated herein by reference. […] Although the specific quantities, temperatures, solvents, reactants, reactant ratios, pressures, and other variables are frequently changed from one polymerization run to the next, the following describes a typical polymerization performed in a parallel pressure reactor.
(§3) Ethylene-Octene Copolymerization (EO).
(§4) A pre-weighed glass vial insert and disposable stirring paddle were fitted to each reaction vessel of the reactor, which contains 48 individual reaction vessels. The reactor was then closed and purged with ethylene. Each vessel was charged with enough solvent (typically isohexane) to bring the total reaction volume, including the subsequent additions, to the desired volume, typically 5 mL. 1-octene, if required, was injected into the reaction vessel and the reactor was heated to the set temperature and pressurized to the predetermined pressure of ethylene, while stirring at 800 rpm. The aluminum compound (such as tri-n-octylaluminum) in toluene was then injected as scavenger followed by addition of the activator solution (typically 1.0-1.2 molar equivalents).
(§5) The catalyst (and activator solutions for Run A) were all prepared in toluene. The catalyst solution (typically 0.020-0.080 μmol of metal complex) was injected into the reaction vessel and the polymerization was allowed to proceed until a pre-determined amount of ethylene (quench value typically 20 psi) had been used up by the reaction. Alternatively, the reaction may be allowed to proceed for a set amount of time (maximum reaction time typically 30 minutes). Ethylene was added continuously (through the use of computer controlled solenoid valves) to the autoclaves during polymerization to maintain reactor gauge pressure (P setpt, +/−2 psig) and the reactor temperature (T) was monitored and typically maintained within +/−1° C. The reaction was quenched by pressurizing the vessel with compressed air. After the reactor was vented and cooled, the glass vial insert containing the polymer product and solvent was removed from the pressure cell and the inert atmosphere glove box, and the volatile components were removed using a Genevac HT-12 centrifuge and Genevac VC3000D vacuum evaporator operating at elevated temperature and reduced pressure. The vial was then weighed to determine the yield of the polymer product. The resultant polymer was analyzed by Rapid GPC (see below) to determine the molecular weight, by FT-IR (see below) to determine percent octene incorporation, and by DSC (see below) to determine melting point (Tm).
(§6) Equivalence is determined based on the mole equivalents relative to the moles of the transition metal in the catalyst complex.
(§7) Activators of the present disclosure can also be used for activating non-metallocene catalysts for polymerization of olefins. Table 4 illustrates copolymerization of ethylene and octene using activators of the present disclosure and non-metallocene catalysts (CAT-1, CAT-2, CAT-3, and CAT-4).

[3] = Ethylene-octene copolymerization in parallel pressure reactor, non-metallocene catalyst CAT-2; conditions: catalyst CAT-2 20 nmol; activator 1.1 equiv; 100° C.; 135 psi; 1-octene 100 uL; TNOAL 0.5 umol
Description: as §1, §2, §3, §4, §5, §6, §7

[4] = Ethylene-octene copolymerization in parallel pressure reactor, non-metallocene catalyst CAT-3; conditions: catalyst CAT-3 20 nmol; activator 1.1 equiv; 100° C.; 135 psi; 1-octene 100 uL; TNOAL 0.5 umol
Description: as §1, §2, §3, §4, §5, §6, §7

[5] = Ethylene-octene copolymerization in parallel pressure reactor, non-metallocene catalyst CAT-4; conditions: catalyst CAT-4 20 nmol; activator 1.1 equiv; 100° C.; 135 psi; 1-octene 100 uL; TNOAL 0.5 umol
Description: as §1, §2, §3, §4, §5, §6, §7

[6] = Activator Equiv 1.0, TNOAL 0.25 umol, MCN-1 30 nmol, 85° C., propylene 135 psi
[7] = Activator Equiv 1.0, TNOAL 0.50 umol, MCN-1 30 nmol, 85° C., propylene 135 psi
[8] = Activator Equiv 1.0, TNOAL 0.75 umol, MCN-1 30 nmol, 85° C., propylene 135 psi
[9] = Activator Equiv 1.2, TNOAL 0.25 umol, MCN-1 30 nmol, 85° C., propylene 135 psi
[10] = Activator Equiv 1.2, TNOAL 0.50 umol, MCN-1 30 nmol, 85° C., propylene 135 psi
[11] = Activator Equiv 1.2, TNOAL 0.75 umol, MCN-1 30 nmol, 85° C., propylene 135 psi
[12] = Activator Equiv 1.4, TNOAL 0.25 umol, MCN-1 30 nmol, 85° C., propylene 135 psi
[13] = Activator Equiv 1.4, TNOAL 0.50 umol, MCN-1 30 nmol, 85° C., propylene 135 psi
[14] = Activator Equiv 1.4, TNOAL 0.75 umol, MCN-1 30 nmol, 85° C., propylene 135 psi
[15] = Activator Equiv 1.6, TNOAL 0.25 umol, MCN-1 30 nmol, 85° C., propylene 135 psi
[16] = Activator Equiv 1.6, TNOAL 0.50 umol, MCN-1 30 nmol, 85° C., propylene 135 psi
[17] = Activator Equiv 1.6, TNOAL 0.75 umol, MCN-1 30 nmol, 85° C., propylene 135 psi
[18] = propylene 150 psi, 100° C., MCN-1 = 30 nmol, activator = 33 nmol, TNOAL 500 nmol

| Molecule | activity [1, 6] | activity [1, 7] | activity [1, 8] | activity [1, 9] | activity [1, 10] | activity [1, 11] | activity [1, 12] | activity [1, 13] | activity [1, 14] | activity [1, 15] | activity [1, 16] | activity [1, 17] | average catalyst activity, comparison of the four activators (FIG. 6) [1] | activity [1, 18] | activity ([1]; propylene, 85 °C, 135 psi, MCN-1 = 20 nmol, activator = 20 nmol, TNOAL 500 nmol) | activity [2] | activity [3] | activity [4] | activity [5] |
| --- | --- | --- | --- | --- | --- | --- | --- | --- | --- | --- | --- | --- | --- | --- | --- | --- | --- | --- | --- |
| N,N-dimethylanilinium tetrakis(heptafluoronaphthalen-2-yl)borate [DMAH-BF28, reference compound] | 604 kg/mmol/h and 502 kg/mmol/h | 394 kg/mmol/h and 352 kg/mmol/h | 233 kg/mmol/h and 212 kg/mmol/h | 703 kg/mmol/h and 673 kg/mmol/h | 506 kg/mmol/h and 459 kg/mmol/h | 332 kg/mmol/h and 256 kg/mmol/h | 709 kg/mmol/h and 677 kg/mmol/h | 554 kg/mmol/h and 431 kg/mmol/h | 370 kg/mmol/h and 334 kg/mmol/h | 803 kg/mmol/h | 511 kg/mmol/h and 467 kg/mmol/h | 404 kg/mmol/h and 356 kg/mmol/h | highest average activities | 175 kg/mmol/h and 231 kg/mmol/h and 160 kg/mmol/h and 121 kg/mmol/h and 211 kg/mmol/h and 188 kg/mmol/h and 190 kg/mmol/h | 138 kg/mmol/h | 3494 kg/mmol/h and 3144 kg/mmol/h | 1161 kg/mmol/h and 724 kg/mmol/h | 808 kg/mmol/h and 691 kg/mmol/h | 59 kg/mmol/h and 54 kg/mmol/h |
| CCCCCCCCCCCCCCCCCC[NH+](CCCCCCCCCCCCCCCCCC)c1ccc(C)cc1.Fc1c(F)c(F)c2c(F)c([B-](c3c(F)c(F)c4c(F)c(F)c(F)c(F)c4c3F)(c3c(F)c(F)c4c(F)c(F)c(F)c(F)c4c3F)c3c(F)c(F)c4c(F)c(F)c(F)c(F)c4c3F)c(F)c(F)c2c1F [DOdTH-BF28, 4-methyl-N,N-dioctadecylbenzenaminium-BF28] | 271 kg/mmol/h and 259 kg/mmol/h and 246 kg/mmol/h | 212 kg/mmol/h and 194 kg/mmol/h and 175 kg/mmol/h | 138 kg/mmol/h and 132 kg/mmol/h and 120 kg/mmol/h | 354 kg/mmol/h and 295 kg/mmol/h and 281 kg/mmol/h | 242 kg/mmol/h and 211 kg/mmol/h and 191 kg/mmol/h | 168 kg/mmol/h and 142 kg/mmol/h and 134 kg/mmol/h | 315 kg/mmol/h and 284 kg/mmol/h and 261 kg/mmol/h | 225 kg/mmol/h and 186 kg/mmol/h and 180 kg/mmol/h | 173 kg/mmol/h and 153 kg/mmol/h and 144 kg/mmol/h | 283 kg/mmol/h and 267 kg/mmol/h | 265 kg/mmol/h and 196 kg/mmol/h and 188 kg/mmol/h | 174 kg/mmol/h and 150 kg/mmol/h and 134 kg/mmol/h | somewhat lower activity | 138 kg/mmol/h and 153 kg/mmol/h and 101 kg/mmol/h | – | 3873 kg/mmol/h and 3497 kg/mmol/h | 1034 kg/mmol/h and 533 kg/mmol/h | 838 kg/mmol/h and 829 kg/mmol/h | 48 kg/mmol/h and 46 kg/mmol/h |
